Assay results: patent US11243205B2, “Method of diagnosis of breast cancer” (LA TROBE UNIVERSITY, priority 2015, dated 2022)

Columns and labels:
PD-L1 = assay: FACS analysis for PD-L1 cell surface expression after interferon treatment; assay type: cell-based; conditions: IFNα 1000 IU/ml, 48 hours, **p<0.01
Method: A loss of IRF9 causes PD-L1 expression to be increased after IFNα stimulation. FACS analysis for PD-L1 cell surface expression using PE tagged anti-PD-L1, MIH5 (1:50). Cells were treated with IFNα (1000 IU/ml) or IFNγ (10 ng/ml) for 48 hours prior to FACS. Data is represented as normalised mean fluorescence intensity (MFI). Error bars represent SEM, n=3. Statistical significance values equal: **p<0.01.

4T1.2-luc2 cells = assay: poly(I:C) treatment of mice bearing 4T1.2-luc2 mammary fat pad tumours, metastasis by bioluminescence and QPCR; assay type: in vivo, balb/c mice; conditions: 25 ug poly(I:C) 3x weekly IV from day 4; primary tumour resected at 0.4 g; bioluminescence and QPCR of luciferase vs vimentin; *p<0.05, **p<0.01
Method: From day 4, mice were treated with 25 ug poly(I:C) or control 3× weekly IV. After primary tumour resection at 0.4 g, mice were monitored for metastasis by bioluminescence (A) and by QPCR analysis of luciferase expression compared to vimentin at end point (B). *p<0.05, **p<0.01.
Expression of Irf9 is knocked out in balb/c (66c14, 4T1) and C57 B1/6 (EO771, PyMT) mouse cell lines and the impact on tumour cell proliferation and orthotopic tumour growth and metastasis in vivo, is required. Associated changes in tumour infiltating and circulating immune cells, impact on tumour cell susceptibility to immune effector cells in vitro and the impact of NK cell specific loss of IFN signalling is measured. • a) Using TALEN technology (Boch J. TALEs of genome targeting. Nature biotechnology. 2011; 29(2):135-6) an Irf9 knockout 4T1 cell line has been generated (FIG. 5). This is repeated in 66c14, EO771 and PyMT cell lines. Given that Irf7 is induced by the ISGF3 complex of STAT1/2 and Irf9, Irf9 loss will likely directly result in reduction of Irf7. Irf7 we can also be knocked out directly in these cells. • The impact of Irf9 loss is measured on cellular proliferation using the SRB assay. […] The activation and function of NK cells is measured by measuring the expression of NKG2D, DNAM-1 and IFNγ on NKp46^+ NK cells. […]

4T1.2-Luc2 = assay: neo-adjuvant poly(I:C) therapy, primary tumour growth and survival; assay type: in vivo, Balb/c mice
Method: Female 8-week-old Balb/c mice were administered poly(I:C) (25 μg, I.V., thrice weekly) and/or doxorubicin (4 mg/kg, twice weekly) beginning 2 days post tumour cell inoculation (100,000 4T1.2-Luc2 IMFP). Differences in primary tumour growth were detectable 6 days after tumour cell inoculation using bioluminescent imaging (of four mice representative of the larger cohort) (A). Therapy was ceased and primary tumours were surgically removed and weighed 12 days post tumour cell injection (B). n=10 mice per group, error bars represent the 95% CI, *p<0.05, **p<0.01, ***p<0.001 using Student's t-tests.
Mice used in FIG. 2 continued to undergo weekly bioluminescent imaging to visualise the kinetics of metastatic spread. (A) Images taken 19 and 23 days post tumour cell inoculation are of the same four mice in identical order and representative of the larger cohort. (B) Mice were individually sacrificed at first signs of metastatic distress and dates recorded to generate Kaplan-Meier survival estimates. […]
Tumour-bearing mice are treated with poly(I:C), a stable derivative of poly(I:C):poly ICLC that is currently in clinical trials (Hiltonol™, Oncovir) or recombinant IFNα1 in early and late treatment settings and the impact of such treatments on immune activation and function, primary tumour growth and metastasis is measured. […]

Substance | PD-L1 expression in cells with loss of IRF9 (PD-L1) | metastasis to lung and bone (4T1.2-luc2 cells) | survival (Kaplan-Meier) (4T1.2-Luc2; neo-adjuvant therapy ceased day 12, mice sacrificed at first signs of metastatic distress, ***p<0.001) | primary tumour growth (4T1.2-Luc2; poly(I:C) 25 μg I.V. thrice weekly from 2 days post inoculation, bioluminescence day 6, tumour weight day 12)
IFNα | increased | – | – | –
poly(I:C) | – | reduces metastasis to lung and bone | prolongs survival | reduces primary tumour growth
